These results are taken from US20250170126A1 (MITSUBISHI TANABE PHARMA CORPORATION, priority 2022, published 2025).

pIC50: −log10 of the molar value.

Broadly, the pIC50 is the IC50 on a negative log10 scale, so that one unit is a factor of ten. A lower pIC50 goes with a high IC50.

For the test, the target named is Human B0AT1 (Homo sapiens (Human), UniProt Q695T7). The test can be described thus: hB0AT1 inhibitory test (phenylalanine uptake). In kind it is cell-based. The note with it: Human B0AT1 stable expression CHO cells; [3H]-L-phenylalanine uptake, phenylalanine 0.25 mM. As for the experimental part: A test compound dissolved in dimethyl sulfoxide (DMSO) was added to a 96 well plate for solid phase radioactivity measurement containing a scintillator at the bottom of the well (final concentration of DMSO 0.5%). DMSO alone as a control and DMSO containing N-(4-bromophenyl)-3,5-dichloro-2-hydroxybenzamide (final concentration […]) for the is measurement of B0AT1 non-specific uptake were similarly added at 0.5 μL per well. Human B0AT1 stable expression CHO cells suspended in a buffer (buffer containing 96 mM sodium chloride, 2 mM potassium chloride, 1.8 mM calcium chloride, 1 mM magnesium chloride, 0.01% bovine serum albumin, and 10 mM 2-[4-(2-hydroxyethyl)-1-piperazinyl]ethanesulfonic acid) were added by 90 μL to 75000 cells/well. After standing at ordinary temperature for 30 min or longer, the cells were subjected to a phenylalanine uptake experiment. A buffer containing L-phenylalanine and [3,4,5-3H]-L-phenylalanine was added by 10 μL per well (final concentration of phenylalanine 0.25 mM), and the radioactivity of the plate bottom surface at ordinary temperature was measured with a scintillation counter over time, and the radioactivity value after 100 to 200 min was analyzed. A value obtained by subtracting the B0AT1 non-specific uptake from the control uptake was taken as 100%, and the concentration necessary for each test compound to achieve 50% inhibition (IC50 value) was determined by nonlinear regression using a logistic model.
Sequence of Human B0AT1 (Q695T7 whole entry): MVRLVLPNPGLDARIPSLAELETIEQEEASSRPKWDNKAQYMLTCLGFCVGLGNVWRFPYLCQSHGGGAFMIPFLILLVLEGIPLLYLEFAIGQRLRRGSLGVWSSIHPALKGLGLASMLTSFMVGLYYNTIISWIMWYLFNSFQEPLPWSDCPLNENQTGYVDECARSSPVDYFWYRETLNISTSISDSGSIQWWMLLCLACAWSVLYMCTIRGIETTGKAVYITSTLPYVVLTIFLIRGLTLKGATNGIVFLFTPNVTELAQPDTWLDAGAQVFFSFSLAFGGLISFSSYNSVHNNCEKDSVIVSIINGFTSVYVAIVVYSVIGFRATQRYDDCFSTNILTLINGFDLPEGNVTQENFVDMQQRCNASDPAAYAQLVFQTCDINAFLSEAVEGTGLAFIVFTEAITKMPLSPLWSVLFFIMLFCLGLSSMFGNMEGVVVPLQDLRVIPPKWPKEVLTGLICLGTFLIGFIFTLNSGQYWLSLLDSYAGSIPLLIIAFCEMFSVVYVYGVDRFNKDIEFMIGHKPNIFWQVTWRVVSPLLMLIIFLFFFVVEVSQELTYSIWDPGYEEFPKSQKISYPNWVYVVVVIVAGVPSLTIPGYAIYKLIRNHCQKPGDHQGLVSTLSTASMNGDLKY
As to `CN1CCN(C(=O)CNC(=O)/C=C/c2ccc(C(F)(F)F)cc2)[C@@H](C(=O)N(C)C)C1` [I-138, (2R)-N,N,4-trimethyl-1-[2-[[(E)-3-[4-(trifluoromethyl)phenyl]prop-2-enoyl]amino]acetyl]piperazine-2-carboxamide], the negative logarithm of the IC50 (pIC50) is 6.39.

For the compound `O=C(/C=C/c1ccc(C(F)(F)F)cc1)NCC(=O)N1CCN(CCO)CC1` [I-25], the pIC50 is 7.09.

`COc1ccc2c(n1)CN(C(=O)CNC(=O)/C=C/c1ccc(C(F)(F)F)cc1)CC2` [I-94] had a pIC50 of 7.40.

Regarding `N#Cc1cnn2c1CN(C(=O)CNC(=O)/C=C/c1ccc(C(F)(F)F)cc1)CC2` [I-190], the pIC50 was 7.68. Next, `CS(=O)(=O)Nc1ccc2c(c1)CCN(C(=O)CNC(=O)/C=C/c1ccc(C(F)(F)F)cc1)C2` [I-188]: 7.47; `COCCN(Cc1noc(C)n1)C(=O)CNC(=O)/C=C/c1ccc(C(F)(F)F)cc1` [I-52]: 7.25.

`CC1CN(C(=O)CNC(=O)/C=C/c2ccc(C(F)(F)F)cc2)CCN1C` (stereo not shown) [I-6] gave a pIC50 of 7.62. Next, `CN1CCN(C(=O)CNC(=O)/C=C/c2ccc(-c3cccnc3)cc2)CC1` [I-111]: 6.33.

Compound `Cc1cc2n(n1)CCCN2C(=O)CNC(=O)/C=C/c1ccc(C(F)(F)F)cc1` [I-184] gave a negative-log IC50 (pIC50) of 7.33.

In the case of `CC1CCN(C(=O)CNC(=O)/C=C/c2ccc(C(F)(F)F)cc2)CC1` [I-26], the pIC50 was 5.84. The result for `CNC(=O)[C@H]1C[C@H](n2cccn2)CN1C(=O)CNC(=O)/C=C/c1ccc(C(F)(F)F)cc1` [I-215] reads 6.33; that for `O=C(/C=C/c1ccc(C(F)(F)F)cc1)NCC(=O)N1CCCNC(=O)C1` [I-16], 5.76; that for `O=C(/C=C/c1ccc(C(F)(F)F)cc1F)NCC(=O)N1CCc2cc(Br)cc(F)c2C1` [I-236], 7.47. In the case of `C[C@@H]1c2ncnn2CCN1C(=O)CNC(=O)/C=C/c1ccc(C(F)(F)F)cc1` [I-204], the pIC50 was 6.09. Regarding `CNC(=O)c1cnn2c1CN(C(=O)CNC(=O)/C=C/c1ccc(C(F)(F)F)cc1)CC2` [I-225], the pIC50 is 7.36. The result for `COCCN(Cc1cc(C)n(C)n1)C(=O)CNC(=O)/C=C/c1ccc(C(F)(F)F)cc1` [I-58] reads 6.45. Next, `CN1CCN(C(=O)CNC(=O)/C=C/c2ccc(OCC(F)(F)C(F)F)cc2)CC1` [I-109]: 6.57; `O=C(/C=C/c1ccc(C(F)(F)F)cc1)NCC(=O)N1CCNC(=O)C1` [I-1, (E)-N-[2-oxo-2-(3-oxopiperazin-1-yl)ethyl]-3-[4-(trifluoromethyl)phenyl]prop-2-enamide]: 6.97.

On to `O=C(/C=C/c1ccc(C(F)(F)F)cc1)NCC(=O)N1CCn2ccnc2C1` [I-21], for which the pIC50 is 7.19. Next, `O=C(/C=C/c1ccc(C(F)(F)F)cc1)NCC(=O)N1CCc2cc(C(=O)O)c(F)cc2C1` [I-262]: 6.36; `Cc1nc2c(s1)CN(C(=O)CNC(=O)/C=C/c1ccc(C(F)(F)F)cc1)C2` [I-61]: 7.09; `CCNC(=O)N1CCN(C(=O)CNC(=O)/C=C/c2ccc(C(F)(F)F)cc2)CC1` [I-134, N-ethyl-4-[2-[[(E)-3-[4-(trifluoromethyl)phenyl]prop-2-enoyl]amino]acetyl]piperazine-1-carboxamide]: 5.91. Next, `O=C(/C=C/c1ccc(C(F)(F)F)cc1)NCC(=O)N1CCn2cc(C(=O)O)nc2C1` [I-140, 7-[2-[[(E)-3-[4-(trifluoromethyl)phenyl]prop-2-enoyl]amino]acetyl]-6,8-dihydro-5H-imidazo[1,2-a]pyrazine-2-carboxylic acid]: 6.48; `CN1[C@@H]2CC[C@H]1CN(C(=O)CNC(=O)/C=C/c1ccc(C(F)(F)F)cc1)C2` [I-122]: 6.19; `COc1nccc2c1CCN(C(=O)CNC(=O)/C=C/c1ccc(C(F)(F)F)cc1)C2` [I-90]: 7.64. The result for `O=C(/C=C/c1ccc(C(F)(F)F)cc1)NCC(=O)N1CCc2[nH]ncc2C1` [I-76] reads 7.28. Compound `COCCN(Cc1ncccc1Cl)C(=O)CNC(=O)/C=C/c1ccc(C(F)(F)F)cc1` [I-55] had a pIC50 of 6.91.

The compound `CCCOc1ccc(/C=C/C(=O)NCC(=O)N2CCN(C)CC2)cc1` [I-108] showed a pIC50 of 6.98.

For the compound `COCCN(CCS(C)(=O)=O)C(=O)CNC(=O)/C=C/c1ccc(C(F)(F)F)cc1` [I-51], the pIC50 is 6.41. `CC1CCN(C(=O)CNC(=O)/C=C/c2ccc(C(F)(F)F)cc2)c2ccnn21` (stereo not shown) [I-187] gave a pIC50 of 7.59. The compound `CNS(=O)(=O)c1ccc2c(c1)CCN(C(=O)CNC(=O)/C=C/c1ccc(C(F)(F)F)cc1)C2` [I-221] had a pIC50 of 7.36. Next, `COCCN(CC(=O)N(C)CCO)C(=O)CNC(=O)/C=C/c1ccc(C(F)(F)F)cc1` [I-148, (E)-N-[2-[[2-[2-hydroxyethyl(methyl)amino]-2-oxoethyl]-(2-methoxyethyl)amino]-2-oxoethyl]-3-[4-(trifluoromethyl)phenyl]prop-2-enamide]: 6.59. `O=C(/C=C/c1ccc(C(F)(F)F)cc1)NCC(=O)N1CCc2cccc(C(F)(F)F)c2C1` [I-191] had a pIC50 of 7.51. `Cn1cnc2c1CN(C(=O)CNC(=O)/C=C/c1ccc(C(F)(F)F)cc1)CC2` [I-40] had a pIC50 of 7.54. Compound `O=C(/C=C/c1ccc(C(F)(F)F)cc1)NCC(=O)N1CC(=O)NC(c2ccccc2)C1` (stereo not shown) [I-12, (E)-N-[2-oxo-2-(3-oxo-5-phenylpiperazin-1-yl)ethyl]-3-[4-(trifluoromethyl)phenyl]prop-2-enamide] showed a pIC50 of 6.79. Next, `O=C(/C=C/c1ccc(C(F)(F)F)cc1)NCC(=O)N1CC[C@H](C(=O)O)C1` [I-125, (3S)-1-[2-[[(E)-3-[4-(trifluoromethyl)phenyl]prop-2-enoyl]amino]acetyl]pyrrolidine-3-carboxylic acid]: 5.79; `CN1CCN(C(=O)CNC(=O)/C=C/c2ccc(C3CCC3)cc2)CC1` [I-116]: 7.41. For the compound `CN1CCN(C(=O)CNC(=O)/C=C/c2ccc(-c3ccc(F)cc3)cc2)CC1` [I-126, (E)-3-[4-(4-fluorophenyl)phenyl]-N-[2-(4-methylpiperazin-1-yl)-2-oxoethyl]prop-2-enamide], the pIC50 was 7.42. In the case of `CN(C)C(=O)c1nc2n(n1)CCN(C(=O)CNC(=O)/C=C/c1ccc(C(F)(F)F)cc1)C2` [I-206], the pIC50 is 7.11. Turning to `COCCN(CC1CCOCC1)C(=O)CNC(=O)/C=C/c1ccc(C(F)(F)F)cc1` [I-49], the pIC50 was 6.11. The result for `COCCN(C(=O)CNC(=O)/C=C/c1ccc(C(F)(F)F)cc1)C(C)COC` (stereo not shown) [I-11] reads 6.55; that for `O=C(/C=C/c1ccc(C(F)(F)F)cc1)NCC(=O)N1CCc2cc(C(=O)O)ncc2C1` [I-264], 7.26.

`O=C(/C=C/c1ccc(C(F)(F)F)cc1)NCC(=O)N1CCn2nc(CO)cc2C1` [I-173, (E)-N-[2-[2-(hydroxymethyl)-6,7-dihydro-4H-pyrazolo[1,5-a]pyrazin-5-yl]-2-oxo-ethyl]-3-[4-(trifluoromethyl)phenyl]prop-2-enamide]: the pIC50 is 7.52. Compound `CN(C)C(=O)c1cn2c(n1)CN(C(=O)CNC(=O)/C=C/c1ccc(C(F)(F)F)cc1)CC2` [I-146] showed a pIC50 of 7.03. `Cc1nc(-c2ccc(/C=C/C(=O)NCC(=O)N3CCN(C)CC3)cc2)no1` [I-107]: the pIC50 was 5.94. `O=C(/C=C/c1ccc(C(F)(F)F)cc1)NCC(=O)N1CCn2c(nnc2C(F)(F)F)C1` [I-22] gave a pIC50 of 6.67. In the case of `O=C(/C=C/c1ccc(C(F)(F)F)cc1)NCC(=O)N1CCn2ncc(Br)c2C1` [I-96], the pIC50 is 8.00. For `COCCN(Cc1cc(OC)ccn1)C(=O)CNC(=O)/C=C/c1ccc(C(F)(F)F)cc1` [I-53], the pIC50 was 7.27. Next, `CN1CCN(C(=O)CNC(=O)/C=C/c2ccc(C(F)(F)F)cc2)CC1=O` [I-17]: 6.71.

`Cc1cccc2c1CN(C(=O)CNC(=O)/C=C/c1ccc(C(F)(F)F)cc1)CC2` [I-193] gave a pIC50 of 7.30. The result for `O=C(/C=C/c1ccc(C(F)(F)F)cc1)NCC(=O)N1CCCc2ccccc21` [I-87] reads 6.91; that for `CCC1Cn2ncnc2CN1C(=O)CNC(=O)/C=C/c1ccc(C(F)(F)F)cc1` (stereo not shown) [I-218], 6.45. The result for `CC1Cn2ncnc2CN1C(=O)CNC(=O)/C=C/c1ccc(C(F)(F)F)cc1` (stereo not shown) [I-97] reads 6.40; that for `CNC(=O)[C@H]1CCN(C(=O)CNC(=O)/C=C/c2ccc(C(F)(F)F)cc2)C1` [I-144, (3S)-N-methyl-1-[2-[[(E)-3-[4-(trifluoromethyl)phenyl]prop-2-enoyl]amino]acetyl]pyrrolidine-3-carboxamide], 6.58. `O=C(/C=C/c1ccc(C(F)(F)F)cc1)NCC(=O)N1CC[C@H](Cn2cccn2)C1` [I-213] had a negative logarithm of the IC50 (pIC50) of 6.97. The result for `CC(=O)N1CCN(C(=O)CNC(=O)/C=C/c2ccc(C(F)(F)F)cc2)CC1` [I-28] reads 6.01; that for `CC(C)c1ccc(/C=C/C(=O)NCC(=O)N2CCN(C)CC2)cc1` [I-106], 6.56. Next, `O=C(/C=C/c1ccc(C(F)(F)F)cc1)NCC(=O)N1CC(=O)NC(c2ccccc2)C1` (single isomer, unassigned) [I-136, (E)-N-[2-oxo-2-[3-oxo-5-phenylpiperazin-1-yl]ethyl]-3-[4-(trifluoromethyl)phenyl]prop-2-enamide]: 7.06.
